According to patent publication US6713477B1, “Hydroxamic acid derivatives” (Sumitomo Pharmaceuticals Company, Limited, priority 2000, dated 2004):

Assays:
[1] = biological target: T1, MMP-2 (Homo sapiens, UniProt P08253); assay: Inhibition assay against MMP-2 (fluorescent MCA-labeled substrate); format: biochemical; settings: active MMP at 20 nM, 37° C., 1.5 hours
T1 construct: Both enzymes were commercially available as active forms (Yagai-Cosmobio); purchased Yagai-Cosmobio
T1 sequence (P08253 110-660): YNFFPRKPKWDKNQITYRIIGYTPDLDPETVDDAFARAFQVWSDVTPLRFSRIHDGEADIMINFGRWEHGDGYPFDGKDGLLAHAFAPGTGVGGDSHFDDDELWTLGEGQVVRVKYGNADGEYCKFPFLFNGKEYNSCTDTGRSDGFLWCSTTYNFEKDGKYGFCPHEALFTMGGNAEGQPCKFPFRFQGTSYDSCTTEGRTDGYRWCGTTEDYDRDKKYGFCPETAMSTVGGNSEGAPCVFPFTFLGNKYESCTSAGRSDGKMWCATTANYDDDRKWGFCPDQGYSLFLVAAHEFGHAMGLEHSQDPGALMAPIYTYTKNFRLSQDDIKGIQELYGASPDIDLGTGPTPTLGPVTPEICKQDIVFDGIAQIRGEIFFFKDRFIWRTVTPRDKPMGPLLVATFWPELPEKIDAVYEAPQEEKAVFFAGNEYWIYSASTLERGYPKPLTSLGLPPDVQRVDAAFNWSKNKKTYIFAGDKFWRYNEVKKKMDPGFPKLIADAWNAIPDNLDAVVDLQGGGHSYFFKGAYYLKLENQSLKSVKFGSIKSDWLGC
Experimental: (§1) Both enzymes were commercially available as active forms (Yagai-Cosmobio) and were used for inhibition assays.
(§2) Enzymatic assays were performed in accordance with C. G. Knight's method (FEBS Lett., 296(3), 263-266 (1992)). The fluorescent MCA-labeled substrate, (7-methoxycumaline-4-yl)-Pro-Leu-Gly-Leu-L-[N-(2,4-dinitrophenyl)-L-2,3-diaminopropionyl]-Ala-Arg-NH2 (Peptide Institute. Inc.) was used for measuring the kinetics of inhibition for each tested compound.
(§3) The substrate was incubated at 37° C. for 1.5 hours (MMP-1; for 24 hours) with active MMP (at 20 nM, except MMP-13 at 5 nM) and a test compound in assay buffer containing 100 mM Tris-HCl (pH7.5), 10 mM CaCl2, 100 MM NaCl and 0.05% Brij-35.

[2] = biological target: T2, MMP-9 (Homo sapiens, UniProt P14780); assay: Inhibition assay against MMP-9 (fluorescent MCA-labeled substrate); format: biochemical; settings: active MMP at 20 nM, 37° C., 1.5 hours
T2 construct: Both enzymes were commercially available as active forms (Yagai-Cosmobio); purchased Yagai-Cosmobio
T2 sequence (P14780 107-707 limits assumed, species assumed): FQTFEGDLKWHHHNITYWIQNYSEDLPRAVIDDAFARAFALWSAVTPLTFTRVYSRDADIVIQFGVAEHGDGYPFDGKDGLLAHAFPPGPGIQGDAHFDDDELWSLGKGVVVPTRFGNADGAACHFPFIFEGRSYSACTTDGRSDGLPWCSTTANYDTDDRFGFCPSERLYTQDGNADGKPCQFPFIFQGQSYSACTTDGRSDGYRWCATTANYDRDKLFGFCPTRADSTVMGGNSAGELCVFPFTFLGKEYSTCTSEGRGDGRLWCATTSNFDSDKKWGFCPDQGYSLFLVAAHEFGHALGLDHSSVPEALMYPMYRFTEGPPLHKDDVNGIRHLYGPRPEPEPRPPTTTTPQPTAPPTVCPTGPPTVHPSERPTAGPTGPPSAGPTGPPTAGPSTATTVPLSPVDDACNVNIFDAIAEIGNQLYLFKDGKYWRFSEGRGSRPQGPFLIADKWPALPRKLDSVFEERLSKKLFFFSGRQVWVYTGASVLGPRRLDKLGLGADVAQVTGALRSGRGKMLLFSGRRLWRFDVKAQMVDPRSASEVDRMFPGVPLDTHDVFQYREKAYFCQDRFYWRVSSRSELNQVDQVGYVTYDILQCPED
Experimental: as §1, §2, §3

[3] = tested on: TNF-α release from RAW 267.4; assay: Inhibition ELISA for Tumor Necrosis Factor-α (TNF-α) release, LPS-stimulated RAW 267.4 cells; format: cell-based; settings: Mus musculus, RAW267.4, LPS-stimulated RAW 267.4, 24 hours, read-out: Inhibition of TNF production at 5 μM
Experimental: RAW 267.4 (derived from mouse monocytes) was seeded in RPMI1640 containing 10% of FBS (GIBCO BRL) at 100 μL/well (5×10^5 cells/mL) onto 96-well microplates and cultured at 37° C., 5% CO2. After culturing for 4 hours, each test compound diluted in RPMI1640 was added at 50 μL/well. 15 minutes later, […] LPS (DIFCO) diluted in RPMI1640 was added at 50 μL/well and cultured for 24 hours.
TNF-α produced was measured by ELISA as usual. (For example; J. Cellular Physiol. 154, 479 (1993)) Absorbance at 450 nm (normalized at 620 nm) was measured and percentage of the amount of TNF-α release for each tested compound (n=2) was determined (0% for untreated control (n=4), and 100% for LPS stimulation (n=4)).

[4] = biological target: T3, MMP-13 (Matrix Metalloproteinase-13, Collagenase-3) (Homo sapiens, UniProt P45452); assay: Inhibition assay against MMP-13 (fluorescent MCA-labeled substrate); format: biochemical; settings: Table 10; active MMP-13 at 5 nM, 37° C., 1.5 hours; read-out: IC50 MMP13
T3 construct: made in house; host or cells: E. coli BL21 (DE3), pET11a
Source text: To subclone C-terminal truncated form of procollagenase-3 (proMMP-13) cDNA (J.Biol.Chem., 269(24), 16766-16773 (1994)), two synthetic oligonucleotide primer (5′-[…]-3′ and 5′-[…]-3′: the former incorporates sequences for a unique NdeI site (underlined) including initial methionine, and the latter has sequences for a stop codon and BamHI site (underlined)) were used with human chondrocyte cDNA library (CLONTECH) in PCR. With these primers and Pfu DNA polymerase (STRATAGENE) in PCR, 767 bp fragment was generated, which encodes 84 amino acid prosequence and 164 amino acids of mature MMP-13. The fragment was digested with NdaI and BamHI, ligated into the NdeI and BamHI sites of pET11a (STRATAGENE), transformed in E.coli BL21 (DE3) and cultured. The crude cell extract was prepared as described in Biochemistry. The extract was dialyzed against 20 mM Tris-HCl(pH7.2)/5 mM CaCl2/0.02% NaN3 and applied to a SP-Sepharose HP column (1.6×10 cm, Amersham-Pharmacia Biotech), and elution was performed with 50 mL linear gradient of 0 to 0.3 M NaCl (partially purified proMMP-13 was eluted at 0.2 M approximately). The fraction was dialyzed against 20 mM Tris-HCl(pH7.9)/5 mM CaCl2,/200 mM (NH4)2SO4/0.02% NaN3 and applied to a Phenyl Sepharose HP column (1.6×5 cm, Amersham-Pharmacia Biotech), and elution was performed with 20 mL linear gradient of 0.2 to 0 M (NH4)2SO4 (pure proHMP-13 was eluted at 50 mM approximately). The fraction was concentrated by YM-5 ultrafiltration membrane and activated with 4-aminophenylmercuric acetate and active MMP-13 was separated from propeptide fragments by gel filtration chromatography as described in Biochemistry.
as §2, §3

[5] = biological target: T4, MMP-3 (Matrix Metalloproteinase-3, Stromelysin-1) (Homo sapiens, UniProt P08254); assay: Inhibition assay against MMP-3 (fluorescent MCA-labeled substrate); format: biochemical; settings: Table 10; active MMP at 20 nM, 37° C., 1.5 hours; read-out: IC50 MMP3
T4 construct: C-terminal truncated form of human prostromelysin cDNA; made in house; host or cells: E. coli
T4 sequence (P08254 100-272 limits assumed): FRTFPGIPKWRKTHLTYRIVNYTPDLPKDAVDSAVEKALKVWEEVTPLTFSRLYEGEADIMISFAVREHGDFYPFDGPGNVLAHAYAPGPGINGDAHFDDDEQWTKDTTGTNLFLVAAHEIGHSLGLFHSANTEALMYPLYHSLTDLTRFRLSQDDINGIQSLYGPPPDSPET
Experimental: C-terminal truncated form of human prostromelysin cDNA (proMMP-3, cDNA sequence in Nature, 348, 699-704 (1990)) was subcloned, expressed in E.coli and purified as described previously (Biochemistry 30, 6476-6483 (1991)). Activation of proMMP-3 was achieved by treatment with 1 mM 4-aminophenylmercuric acetate at 37° C. for 60 min.
as §2, §3

CCCCOc1ccc(C=C2Sc3ccccc3N(CC(=O)NO)C2=O)cc1 [Example 369]
IC50 [1]: > 1000 nM
IC50 [2]: 200 nM

COc1ccc(C2SCC(=O)N2[C@@H](CC(C)C)C(=O)NO)cc1 (stereo partly drawn) [Example 21, 3-[(1S)-(N-Hydroxyaminocarbonyl)-3-methylbutyl]-2-(4-methoxyphenyl)-1,3-thiazolidine-4-one]
IC50 [2]: > 1000 nM

COc1ccc(/C=C2\Sc3ccccc3N(CC(=O)NO)C2=O)cc1 [Example 365, 2H-2(Z)-(4-Methoxybenzylidene)-1,4-benzothiazin-3(4H)-one-4-yl-acetic Acid N-Hydroxylamide]
IC50 [1]: 320 nM
IC50 [2]: 110 nM
inhibition at 5 µM [3]: 20%

O=C(CN1C(=O)/C(=C/c2ccc(Oc3ccccc3)cc2)Sc2ccccc21)NO [Example 368]
IC50 [1]: 300 nM
IC50 [4]: 36 nM
IC50 [2]: < 10 nM
inhibition at 5 µM [3]: 30%
IC50 [5]: 1500 nM
